pIC50, pKi: −log10 of the molar value.
How the values were obtained:
[1] = target: T1, Angiotensin-converting enzyme (Homo sapiens, UniProt P12821); test: Inhibition of ACE at 100 uM
Rattus norvegicus [2] = test: Antihypertensive activity in spontaneously hypertensive rat assessed as inhibition of angiotensin 1-induced vasopressive response at 20 mg/kg, iv after 10 mins; type: functional
Rattus norvegicus [3] = test: Antihypertensive activity in spontaneously hypertensive rat assessed as inhibition of angiotensin 1-induced vasopressive response at 20 mg/kg, iv after 20 mins; type: functional
[4] = target: T1, Angiotensin-converting enzyme; test: Inhibition of ACE at 400 uM
Rattus norvegicus [5] = test: Antihypertensive activity in spontaneously hypertensive rat assessed as inhibition of angiotensin 1-induced vasopressive response at 40 mg/kg, iv after 20 mins; type: functional
[6] = target: T1, Angiotensin-converting enzyme; test: Inhibition of ACE by Lineweaver-Burke plot
Rattus norvegicus [7] = test: Antihypertensive activity in spontaneously hypertensive rat assessed as inhibition of angiotensin 1-induced vasopressive response at 80 mg/kg, iv after 20 mins; type: functional
Rattus norvegicus [8] = test: Antihypertensive activity in spontaneously hypertensive rat assessed as inhibition of angiotensin 1-induced vasopressive response at 40 mg/kg, iv after 10 mins; type: functional
Rattus norvegicus [9] = test: Antihypertensive activity in spontaneously hypertensive rat assessed as inhibition of angiotensin 1-induced vasopressive response at 20 mg/kg, iv after 30 mins; type: functional; conditions: 0.5 h
Rattus norvegicus [10] = test: Antihypertensive activity in spontaneously hypertensive rat assessed as inhibition of angiotensin 1-induced vasopressive response at 40 mg/kg, iv after 30 mins; type: functional; conditions: 0.5 h
[11] = target: T1, Angiotensin-converting enzyme; test: Inhibition of ACE at 200 uM
Rattus norvegicus [12] = test: Antihypertensive activity in spontaneously hypertensive rat assessed as inhibition of angiotensin 1-induced vasopressive response at 80 mg/kg, iv after 30 mins; type: functional; conditions: 0.5 h
Rattus norvegicus [13] = test: Antihypertensive activity in spontaneously hypertensive rat assessed as inhibition of angiotensin 1-induced vasopressive response at 80 mg/kg, iv after 10 mins; type: functional
[14] = target: T1, Angiotensin-converting enzyme; test: Inhibition of ACE
Rattus norvegicus [15] = test: Antihypertensive activity in spontaneously hypertensive rat assessed as inhibition of angiotensin 1-induced vasopressive response at 0.4 mg/kg, iv after 20 mins; type: functional
Rattus norvegicus [16] = test: Antihypertensive activity in spontaneously hypertensive rat assessed as inhibition of angiotensin 1-induced vasopressive response at 0.04 mg/kg, iv after 20 mins; type: functional
Rattus norvegicus [17] = test: Antihypertensive activity in spontaneously hypertensive rat assessed as inhibition of angiotensin 1-induced vasopressive response at 0.4 mg/kg, iv after 30 mins; type: functional; conditions: 0.5 h
Rattus norvegicus [18] = test: Antihypertensive activity in spontaneously hypertensive rat assessed as inhibition of angiotensin 1-induced vasopressive response at 0.4 mg/kg, iv after 10 mins; type: functional
Rattus norvegicus [19] = test: Antihypertensive activity in spontaneously hypertensive rat assessed as inhibition of angiotensin 1-induced vasopressive response at 0.04 mg/kg, iv after 30 mins; type: functional; conditions: 0.5 h
Rattus norvegicus [20] = test: Antihypertensive activity in spontaneously hypertensive rat assessed as inhibition of angiotensin 1-induced vasopressive response at 0.04 mg/kg, iv after 10 mins; type: functional

T1 sequence (P12821 whole entry): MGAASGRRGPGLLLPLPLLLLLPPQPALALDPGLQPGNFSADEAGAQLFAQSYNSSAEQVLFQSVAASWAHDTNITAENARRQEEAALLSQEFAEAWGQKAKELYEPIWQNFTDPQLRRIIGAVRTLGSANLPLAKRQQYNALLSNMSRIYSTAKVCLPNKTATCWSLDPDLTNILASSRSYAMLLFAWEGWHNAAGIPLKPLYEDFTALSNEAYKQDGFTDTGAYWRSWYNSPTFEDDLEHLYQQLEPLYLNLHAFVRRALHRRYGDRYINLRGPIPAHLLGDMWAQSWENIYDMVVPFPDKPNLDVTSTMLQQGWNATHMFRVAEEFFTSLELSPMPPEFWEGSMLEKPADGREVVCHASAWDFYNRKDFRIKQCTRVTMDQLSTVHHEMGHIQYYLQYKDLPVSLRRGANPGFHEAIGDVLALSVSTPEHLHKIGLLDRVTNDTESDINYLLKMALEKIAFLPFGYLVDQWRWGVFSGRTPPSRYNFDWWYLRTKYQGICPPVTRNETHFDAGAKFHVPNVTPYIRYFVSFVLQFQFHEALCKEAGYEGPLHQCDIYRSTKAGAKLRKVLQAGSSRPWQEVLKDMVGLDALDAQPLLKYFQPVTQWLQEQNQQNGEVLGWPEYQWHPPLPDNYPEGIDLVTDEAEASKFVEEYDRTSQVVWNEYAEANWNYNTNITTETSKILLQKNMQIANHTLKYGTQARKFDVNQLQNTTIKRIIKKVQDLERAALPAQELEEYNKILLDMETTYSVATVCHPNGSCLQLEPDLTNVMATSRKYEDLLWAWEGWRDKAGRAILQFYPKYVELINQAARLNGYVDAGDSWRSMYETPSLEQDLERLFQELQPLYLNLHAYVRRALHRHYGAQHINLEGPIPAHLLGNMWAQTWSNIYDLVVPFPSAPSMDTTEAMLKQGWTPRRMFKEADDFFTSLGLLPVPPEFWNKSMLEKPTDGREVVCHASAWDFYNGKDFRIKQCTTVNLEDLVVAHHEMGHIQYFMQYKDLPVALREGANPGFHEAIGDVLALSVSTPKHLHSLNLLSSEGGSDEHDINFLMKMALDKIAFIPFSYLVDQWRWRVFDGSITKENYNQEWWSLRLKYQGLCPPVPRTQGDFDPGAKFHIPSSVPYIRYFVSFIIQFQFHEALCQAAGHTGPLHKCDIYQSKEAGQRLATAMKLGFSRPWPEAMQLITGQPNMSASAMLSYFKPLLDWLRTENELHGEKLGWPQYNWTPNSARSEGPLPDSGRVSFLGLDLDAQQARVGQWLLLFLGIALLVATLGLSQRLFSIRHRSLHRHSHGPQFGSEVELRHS

Row | Structure (SMILES) | inhibition [1] | inhibition [4] | pKi [6] | inhibition [11] | pIC50 [14] | also measured
1 | CC(=O)Oc1cc(OC(C)=O)c2c(=O)c3cc(OC(C)=O)c(OC(C)=O)cc3oc2c1 | < 1% | – | – | – | – | –
2 | O=c1c2cc(O)c(O)cc2oc2c(O)c(O)ccc12 | 83.1% | 95% | 4.85 | 90% | – | inhibition in vivo at 20 mg/kg (Rattus norvegicus [2]): 33.8%; inhibition in vivo at 20 mg/kg (Rattus norvegicus [3]): 5.9%; inhibition in vivo at 40 mg/kg (Rattus norvegicus [5]): 30.8%; inhibition in vivo at 80 mg/kg (Rattus norvegicus [7]): 32.5%; inhibition in vivo at 40 mg/kg (Rattus norvegicus [8]): 47.8%; inhibition in vivo at 20 mg/kg (Rattus norvegicus [9]): 0%; inhibition in vivo at 40 mg/kg (Rattus norvegicus [10]): 10%; inhibition in vivo at 80 mg/kg (Rattus norvegicus [12]): 13%; inhibition in vivo at 80 mg/kg (Rattus norvegicus [13]): 52.7%
3 | O=c1c2ccc(O)c(O)c2oc2c(O)c(O)ccc12 | 34.3% | 55.5% | 3.90 | 46.2% | 3.62 | –
4 | CC(=O)Oc1cc2oc3c(OC(C)=O)c(OC(C)=O)ccc3c(=O)c2cc1OC(C)=O | 9.82% | – | – | – | – | –
5 | O=c1c2ccc(O)c(O)c2oc2cc(O)cc(O)c12 | 56.4% | 75.3% | 4.47 | 67.7% | 4.16 | –
6 | O=c1c2cc(O)c(O)cc2oc2cc(O)c(O)cc12 | 11.7% | 26.8% | – | 17.2% | < 3.11 | –
7 | CC(=O)Oc1cc(OC(C)=O)c2c(=O)c3ccc(OC(C)=O)c(OC(C)=O)c3oc2c1 | < 1% | – | – | – | – | –
8 | CC(=O)Oc1ccc2c(=O)c3ccc(OC(C)=O)c(OC(C)=O)c3oc2c1OC(C)=O | 7% | – | – | – | – | –
9 | CC(=O)Oc1cc2oc3cc(OC(C)=O)c(OC(C)=O)cc3c(=O)c2cc1OC(C)=O | < 1% | – | – | – | – | –
10 | C[C@H](CS)C(=O)N1CCC[C@H]1C(=O)O [CAPTOPRIL] | – | – | – | – | – | inhibition in vivo at 0.4 mg/kg (Rattus norvegicus [15]): 66.6%; inhibition in vivo at 0.04 mg/kg (Rattus norvegicus [16]): 0%; inhibition in vivo at 0.4 mg/kg (Rattus norvegicus [17]): 45.5%; inhibition in vivo at 0.4 mg/kg (Rattus norvegicus [18]): 78.5%; inhibition in vivo at 0.04 mg/kg (Rattus norvegicus [19]): 0%; inhibition in vivo at 0.04 mg/kg (Rattus norvegicus [20]): 10%
11 | O=c1c2cc(O)c(O)cc2oc2cc(O)cc(O)c12 | 15.5% | 40.3% | 3.60 | 23.5% | 3.28 | –

— ChEMBL document CHEMBL1159033, “Inhibition of angiotensin-I-converting enzyme by tetrahydroxyxanthones isolated from Tripterospermum lanceolatum” (J Nat Prod, 1992)
